Earlier results on one compound are cited in patent publication US11565004B2, “In vivo imaging of matrix metalloproteinases in lung disease” (The Trustees of Columbia University in the City of New York, priority 2016, dated 2023).

The subject of the series is MMPs-1, -2, -3, -7, -9, -12, and -13.

`COc1ccc(S(=O)(=O)N(Cc2cccnc2)[C@@H](C(=O)NO)C(C)C)cc1` [CGS27023A]: the “affinities against MMPs” value is listed as “high affinities”.
